Experimental findings from patent US11999727B2 (Tango Therapeutics, Inc., priority 2020, dated 2024) are described below.

In assay [1] the target is T1, PRMT5 (Homo sapiens, UniProt O14744).
T1 construct: purchased Viva (custom protein)
Briefly: PRMT5 biochemical IC50 assay with SAM as cofactor. As to conditions: PRMT5, SAM as cofactor; read-out: SAM IC50.

Assay [2] deals with T1, PRMT5. Kind of assay: PRMT5 biochemical IC50 assay with no cofactor. The following applies: PRMT5, no cofactor. From the text:
Table 1 indicates IC50 values (μM) against PRMT5 for exemplary compounds in the presence of SAM as cofactor, with no cofactor, and with MTA as cofactor, respectively (columns 4-6). […] Ki values can be calculated from the IC50 values as described in the Examples section. As detailed in the Examples section, for the assay performed in the presence of SAM, IC50=Ki×1.5 (Ki=IC50/1.5).

Assay [3] concerns the target T1, PRMT5. Briefly: PRMT5 biochemical IC50 assay with MTA as cofactor. The following applies: PRMT5, MTA as cofactor; read-out: MTA IC50.
Assay [4] has as its system HAP1 MTAP-intact cell line. Briefly: SDMA in-cell western assay, HAP1 MTAP-intact. In kind it is cell-based. The following applies: Homo sapiens, HAP1, SDMA in-cell western, HAP1 MTAP-intact; read-out: MTAP HAP1 intact IC50. The essentials: (§1)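 IC50 values come from SDMA signal quantified by in-cell western in two HAP1 lines, one with native MTAP levels and one lacking MTAP.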

Assay [5] concerns HAP1 MTAP-deleted cell line. Briefly: SDMA in-cell western assay, HAP1 MTAP-deleted. It counts as cell-based. The following applies: for IC50: Homo sapiens, HAP1, SDMA in-cell western, HAP1 MTAP-deleted; for MTAP intact/deleted ratio: SDMA in-cell western. An outline of the steps: as §1
The test system of assay [6] is HAP1 MTAP-deleted cell line. Briefly: Viability assay, MTAP-deleted cell line. As to conditions: Homo sapiens, read-out: HAP1 MTAP deleted viability. It counts as cell-based. From the text: Table 1 additionally indicates IC50 values in a viability assay for the MTAP-deleted cell line (column 10), indicating the effect of treatment with compound on cell survival.

Where [7] appears, read: read-out: HAP1 MTAP deleted IC50.
[8] abbreviates: IC50 ratio HAP1 MTAP-intact / HAP1 MTAP-deleted.
The mark [9] stands for this setting: HAP1, viability assay, MTAP-deleted cell line.
Setting [10] is: read-out: HAP 1 MTAP deleted IC50.
Setting [11] is: HAP1, viability IC50, MTAP-deleted cell line.
The mark [12] stands for this setting: read-out: No Cofactor/ rel IC50.
Where [13] appears, read: HAP1, viability assay, HAP1 MTAP-deleted.
[14] abbreviates: IC50 ratio HAP1 MTAP-intact vs HAP1 MTAP-deleted.

T1 sequence (O14744 whole entry): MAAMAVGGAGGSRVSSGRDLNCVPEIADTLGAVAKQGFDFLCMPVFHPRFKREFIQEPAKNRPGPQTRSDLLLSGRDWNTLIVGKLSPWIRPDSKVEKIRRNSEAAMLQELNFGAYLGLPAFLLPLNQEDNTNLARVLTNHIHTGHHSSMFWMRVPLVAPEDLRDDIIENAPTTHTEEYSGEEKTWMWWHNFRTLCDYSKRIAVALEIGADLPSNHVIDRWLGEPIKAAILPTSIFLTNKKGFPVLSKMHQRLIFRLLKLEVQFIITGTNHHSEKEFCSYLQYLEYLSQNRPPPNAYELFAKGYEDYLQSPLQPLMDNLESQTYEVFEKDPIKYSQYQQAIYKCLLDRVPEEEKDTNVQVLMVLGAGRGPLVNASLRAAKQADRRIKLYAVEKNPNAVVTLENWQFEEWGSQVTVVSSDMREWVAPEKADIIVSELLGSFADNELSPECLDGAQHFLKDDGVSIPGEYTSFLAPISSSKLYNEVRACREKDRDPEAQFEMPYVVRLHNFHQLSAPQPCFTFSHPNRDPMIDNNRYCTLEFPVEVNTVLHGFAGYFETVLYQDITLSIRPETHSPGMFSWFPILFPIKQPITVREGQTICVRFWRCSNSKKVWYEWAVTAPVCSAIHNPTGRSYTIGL
T1 sequence (Q9BQA1 whole entry partner): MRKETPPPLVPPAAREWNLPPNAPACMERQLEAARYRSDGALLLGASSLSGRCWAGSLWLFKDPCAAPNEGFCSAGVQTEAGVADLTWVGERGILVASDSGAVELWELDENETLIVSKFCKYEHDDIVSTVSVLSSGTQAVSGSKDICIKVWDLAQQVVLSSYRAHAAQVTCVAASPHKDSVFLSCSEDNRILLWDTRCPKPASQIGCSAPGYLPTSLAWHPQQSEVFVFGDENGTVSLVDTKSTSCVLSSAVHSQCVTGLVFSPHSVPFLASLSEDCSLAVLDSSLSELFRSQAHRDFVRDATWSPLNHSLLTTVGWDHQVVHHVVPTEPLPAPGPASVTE

Take `C[C@H]1CC[C@H](c2cccc(Cl)c2)N(C(=O)C(=O)Nc2cncc(C(N)=O)c2)C1` (single isomer, unassigned) [Compound 440]: the IC50 on PRMT5 [1] is 50 to 500 nM; on PRMT5 [2] (read-out: No Cofactor/rel IC50), 50 to 500 nM; on PRMT5 [3] it was < 50 nM; in assay [4] it was > 1000 nM; in assay [5] (setting [7]) it was < 100 nM; in assay [6] (setting [9]) it was 1000 to 10000 nM. For the same molecule, the MTAP intact/deleted ratio result in assay [5] (setting [8]) is “A (an IC50 ratio greater than or equal to 10 fold)”.
As to `Cc1cc(NC(=O)C(=O)N2C[C@@H](C)CC[C@@H]2c2ccc(C(F)(F)F)cc2)cnc1N` (single isomer, unassigned) [Compound 575], the IC50 was > 500 nM at PRMT5 [1]; > 500 nM on PRMT5 [2] (read-out: No Cofactor/rel IC50); > 500 nM at PRMT5 [3]; > 1000 nM in assay [4]; > 1000 nM in assay [5] (setting [10]); > 10000 nM in assay [6] (setting [11]). For the same molecule, the MTAP intact/deleted ratio result in assay [5] (setting [8]) is recorded as “C (an IC50 ratio of less than 3 fold)”.
For the molecule `CCc1cc(NC(=O)C(=O)N2C[C@@H](C)CC[C@@H]2c2ccc3sc([C@@H]4CCN(C)C(=O)C4)nc3c2)cnc1N` [Compound 1256, N-(6-amino-5-ethyl-3-pyridyl)-2-[(2R,5S)-5-methyl-2-[2-(1-methyl-2-oxo-4-piperidyl)-1,3-benzothiazol-5-yl]-1-piperidyl]-2-oxo-acetamide], the IC50 is 50 to 500 nM on PRMT5 [1]; < 50 nM at PRMT5 [2] (setting [12]); < 50 nM at PRMT5 [3]; < 100 nM in assay [4]; < 100 nM in assay [5] (setting [10]); < 1000 nM in assay [6] (HAP1, viability, HAP1 MTAP-deleted cell line). Also, the “MTAP intact/deleted ratio” value in assay [5] (setting [8]) is “A (an IC50 ratio greater than or equal to 10 fold)”.
As to `COc1ncc(NC(=O)C(=O)N2C[C@@H](C)CC[C@@H]2c2cc(F)c(F)c(F)c2)cc1C(N)=O` (single isomer, unassigned) [Compound 739], the IC50 at PRMT5 [1] is > 500 nM; on PRMT5 [2] (read-out: No Cofactor/rel IC50), > 500 nM; on PRMT5 [3], > 500 nM; in assay [4] it was > 1000 nM; in assay [5] (setting [7]), > 1000 nM; in assay [6] (setting [13]), > 10000 nM. Further, the MTAP intact/deleted ratio result in assay [5] (setting [8]) was “B (an IC50 ratio greater than or equal to 3 fold but lower than 10 fold)”.
With `Cc1cncc(NC(=O)C(=O)N2C[C@H](C)CC[C@H]2c2ccc3c(c2)CCCC3)c1` (racemic) [Compound 80, N-(5-methyl-3-pyridyl)-2-[(2S,5R)-5-methyl-2-tetralin-6-yl-1-piperidyl]-2-oxo-acetamide], the IC50 at PRMT5 [1] is > 500 nM; at PRMT5 [2] (setting [12]), > 500 nM; at PRMT5 [3] it was 50 to 500 nM; in assay [4], > 1000 nM; in assay [5] (setting [10]), > 1000 nM; in assay [6] (setting [9]), > 10000 nM. For the same molecule, the “MTAP intact/deleted ratio” value in assay [5] (setting [8]) is “C (an IC50 ratio of less than 3 fold)”.
For the molecule `Cc1cc(NC(=O)C(=O)N2C[C@H](C)CC[C@H]2c2ccc3nn(C)cc3c2)cnc1N` (single isomer, unassigned) [Compound 1044], the IC50 at PRMT5 [1] was 50 to 500 nM; at PRMT5 [2] (read-out: No Cofactor/rel IC50) it was < 50 nM; on PRMT5 [3] it was < 50 nM; in assay [4], 100 to 1000 nM; in assay [5] (setting [10]), < 100 nM; in assay [6] (setting [9]) it was < 1000 nM. In addition, the MTAP intact/deleted ratio entry in assay [5] (setting [8]) was “A (an IC50 ratio greater than or equal to 10 fold)”.
Take `CCc1cc(NC(=O)C(=O)N2CC(C)CCC2c2ccc(N3CCC4C(CCCN4C)C3)cc2)cnc1N` (single isomer, unassigned) [Compound 1111]: the IC50 at PRMT5 [1] is 50 to 500 nM; on PRMT5 [2] (read-out: No Cofactor/rel IC50), < 50 nM; at PRMT5 [3] it was < 50 nM; in assay [4], 100 to 1000 nM; in assay [5] (setting [7]), < 100 nM; in assay [6] (setting [9]), < 1000 nM. The MTAP intact/deleted ratio result in assay [5] (setting [14]) is “A (an IC50 ratio greater than or equal to 10 fold)”.
On to `CCc1cc(NC(=O)C(=O)N2CC(C)CCC2c2ccc(N3CCC4C(CCCN4C)C3)cc2)cnc1N` (single isomer, unassigned) [Compound 1132], for which the IC50 is 50 to 500 nM on PRMT5 [1]; < 50 nM at PRMT5 [2] (read-out: No Cofactor/rel IC50); < 50 nM on PRMT5 [3]; 100 to 1000 nM in assay [4]; < 100 nM in assay [5] (setting [7]); < 1000 nM in assay [6] (setting [9]). The MTAP intact/deleted ratio entry in assay [5] (setting [14]) is given as “A (an IC50 ratio greater than or equal to 10 fold)”.
With `CNC(=O)c1ccc([C@@H]2CC[C@@H](C)CN2C(=O)C(=O)Nc2cncc(C(N)=O)c2)s1` (single isomer, unassigned) [Compound 829], the IC50 on PRMT5 [1] was 50 to 500 nM; on PRMT5 [2] (read-out: No Cofactor/rel IC50), < 50 nM; at PRMT5 [3], < 50 nM; in assay [4] it was > 1000 nM; in assay [5] (setting [7]), < 100 nM; in assay [6] (setting [13]), 1000 to 10000 nM. Further, the MTAP intact/deleted ratio result in assay [5] (setting [8]) was “A (an IC50 ratio greater than or equal to 10 fold)”.
In the case of `Cc1cccc([C@@H]2CCCCN2C(=O)C(=O)Nc2cnc(N)c(C)c2)c1` (single isomer, unassigned) [Compound 57], the IC50 was > 500 nM at PRMT5 [1]; > 500 nM on PRMT5 [2] (setting [12]); 50 to 500 nM at PRMT5 [3]; > 1000 nM in assay [4]; > 1000 nM in assay [5] (setting [10]); > 10000 nM in assay [6] (setting [9]). In addition, in assay [5] (setting [8]), the “MTAP intact/deleted ratio” value is given as “C (an IC50 ratio of less than 3 fold)”.
As to `Cc1cc(NC(=O)C(=O)N2C[C@H](C)CC[C@H]2[C@H]2CCC[C@H](O)C2)cnc1N` (single isomer, unassigned) [Compound 559], the IC50 was 50 to 500 nM at PRMT5 [1]; 50 to 500 nM at PRMT5 [2] (read-out: No Cofactor/rel IC50); < 50 nM at PRMT5 [3]; > 1000 nM in assay [4]; 100 to 1000 nM in assay [5] (setting [10]); 1000 to 10000 nM in assay [6] (setting [11]). Besides, in assay [5] (setting [8]), the MTAP intact/deleted ratio result is “A (an IC50 ratio greater than or equal to 10 fold)”.
Turning to `C[C@H]1CC[C@H](c2ccc3sccc3c2)N(C(=O)C(=O)Nc2cncc(C(N)=O)c2)C1` (single isomer, unassigned) [Compound 585], the IC50 at PRMT5 [1] was < 50 nM; at PRMT5 [2] (read-out: No Cofactor/rel IC50), < 50 nM; on PRMT5 [3], < 50 nM; in assay [4], 100 to 1000 nM; in assay [5] (setting [10]), < 100 nM; in assay [6] (setting [11]), < 1000 nM. The MTAP intact/deleted ratio entry in assay [5] (setting [8]) is on record as “A (an IC50 ratio greater than or equal to 10 fold)”.
Consider `Cc1cc(NC(=O)C(=O)N2C[C@H](C)CC[C@H]2c2cc(Cl)cc(Cl)c2)cnc1N` (single isomer, unassigned) [Compound 681], for which the IC50 is 50 to 500 nM on PRMT5 [1]; < 50 nM at PRMT5 [2] (read-out: No Cofactor/rel IC50); < 50 nM on PRMT5 [3]; > 1000 nM in assay [4]; < 100 nM in assay [5] (setting [10]); 1000 to 10000 nM in assay [6] (setting [11]). Also, in assay [5] (setting [8]), the MTAP intact/deleted ratio entry is reported as “A (an IC50 ratio greater than or equal to 10 fold)”.
On to `CCc1cc(NC(=O)C(=O)N2C[C@@H](C)CC[C@@H]2c2ccc(N3CC[C@@H]4CCN(C)C[C@@H]4C3)cc2)cnc1N` (single isomer, unassigned) [Compound 1144], for which the IC50 at PRMT5 [1] is 50 to 500 nM; on PRMT5 [2] (read-out: No Cofactor/rel IC50), < 50 nM; at PRMT5 [3], < 50 nM; in assay [4], 100 to 1000 nM; in assay [5] (setting [7]), < 100 nM; in assay [6] (setting [9]), < 1000 nM. In addition, in assay [5] (setting [14]), the MTAP intact/deleted ratio result was “A (an IC50 ratio greater than or equal to 10 fold)”.
For `C[C@@H]1CC[C@@H](c2ccc(N[C@@H]3CCN(C)C3=O)cc2)N(C(=O)C(=O)Nc2cncc(C(N)=O)c2)C1` (racemic) [Compound 430, 5-[[2-[(2S,5R)-5-Methyl-2-[4-[[(3R)-1-methyl-2-oxo-pyrrolidin-3-yl]amino]phenyl]-1-piperidyl]-2-oxo-acetyl]amino]pyridine-3-carboxamide], the IC50 is 50 to 500 nM on PRMT5 [1]; 50 to 500 nM at PRMT5 [2] (read-out: No Cofactor/rel IC50); 50 to 500 nM at PRMT5 [3]; > 1000 nM in assay [4]; < 100 nM in assay [5] (setting [7]); 1000 to 10000 nM in assay [6] (setting [9]). In addition, the MTAP intact/deleted ratio result in assay [5] (setting [8]) was “A (an IC50 ratio greater than or equal to 10 fold)”.
Take `CCc1cc(NC(=O)C(=O)N2C[C@@H](C)CC[C@@H]2c2ccc(N3CCN(C(C)C)CC3)c(C)c2)cnc1N` (racemic) [Compound 1163, N-(6-Amino-5-ethyl-3-pyridyl)-2-oxo-2-[rac-(2R,5S)-2-[4-(4-isopropylpiperazin-1-yl)-3-methyl-phenyl]-5-methyl-1-piperidyl]acetamide]: the IC50 on PRMT5 [1] was < 50 nM; at PRMT5 [2] (read-out: No Cofactor/rel IC50), < 50 nM; on PRMT5 [3], < 50 nM; in assay [4], 100 to 1000 nM; in assay [5] (setting [7]), < 100 nM; in assay [6] (setting [9]), < 1000 nM. The MTAP intact/deleted ratio entry in assay [5] (setting [14]) is on record as “A (an IC50 ratio greater than or equal to 10 fold)”.
